Calls of active or inactive are those of the source. The rule behind the calls is not given here.
Experiments:
Plasmodium falciparum [1] = test: Antimalarial activity against asynchronous chloroquine-resistant Plasmodium falciparum K1 assessed as parasite growth inhibition infected in erythrocytes incubated for 72 hrs by SYBR green dye based assay; format: functional, organism-based; conditions: K1, 72 h
Plasmodium falciparum [2] = test: Antimalarial activity against asynchronous chloroquine-sensitive Plasmodium falciparum 3D7 assessed as parasite growth inhibition infected in erythrocytes incubated for 72 hrs by SYBR green dye based assay; format: functional, organism-based; conditions: 3D7, 72 h
THP-1 [3] = test: Antiinflammatory activity against human THP-1 cells assessed as inhibition of LPS-induced TNFalpha level at 10 uM incubated for 12 to 14 hrs followed by compound replenishment for 1 hr and subsequent LPS treatment for 4 hrs by ELISA assay (reference value: 93.43 %); format: functional; parameters: scale not given: the % may be the effect or the level left; conditions: time 17-19 hrs
HEK-293T = test: Antiinflammatory activity against HEK293T cells assessed as fold increase in TNFalpha-induced NF-kappaB activity at 10 uM incubated for 1 hr followed by TNFalpha treatment for 5 hrs by luciferase based assay (reference value: 17.1); format: functional, Homo sapiens
THP-1 [4] = test: Cytotoxicity against LPS-stimulated human THP-1 cells assessed as cell viability at 10 uM incubated for 12 hrs followed by LPS treatment measured after 4 hrs by PI staining based flow cytometry; format: functional; conditions: time 16.0 hrs
Plasmodium yoelii [5] = test: Antimalarial activity against chloroquine-resistant Plasmodium yoelii N67 infected in Swiss mouse assessed as parasite growth suppression at 100 mg/kg/day, po for 4 days measured on day 7 relative to control; format: functional; conditions: time 7 day
Plasmodium yoelii [6] = test: Antimalarial activity against chloroquine-resistant Plasmodium yoelii N67 infected in Swiss mouse assessed as parasite growth suppression at 100 mg/kg/day, po for 4 days measured on day 4 relative to control; format: functional; conditions: time 4 day
[7] = Toxicity in Swiss mouse infected with chloroquine-resistant Plasmodium yoelii N67 assessed as mean survival time at 100 mg/kg/day, po for 4 days (reference value: 7.2 +/- 1.3 day); format: organism-based; conditions: in vivo, 96 h, time 4 day
[8] = Cytotoxicity against African green monkey Vero cells incubated for 3 days by fluorescence based assay; format: toxicity, cell-based; conditions: chlorocebus sabaeus, time 3 day
[9] = Stability in simulated gastric fluid assessed as compound remaining at pH 1.2 measured upto 120 mins by LC-MS analysis; format: ADME; conditions: read-out: Stability
[10] = MRT in fasted Swiss mouse at 50 mg/kg, po measured upto 48 hrs by LC-MS/MS analysis; format: ADME, organism-based; conditions: in vivo
Mus musculus [11] = test: Antiinflammatory activity in Swiss albino mouse assessed as inhibition of carrageenan-induced paw edema at 25 mg/kg,po pretreated for 1 hr followed by carrageenan administration measured after 4 hrs relative to control; format: functional; conditions: time 5 hrs
Mus musculus [12] = test: Antiinflammatory activity in Swiss albino mouse assessed as inhibition of carrageenan-induced paw edema at 100 mg/kg,po pretreated for 1 hr followed by carrageenan administration measured after 4 hrs relative to control; format: functional; conditions: time 5 hrs
[13] = Half life in fasted Swiss mouse at 50 mg/kg, po measured upto 48 hrs by LC-MS/MS analysis; format: ADME, organism-based; conditions: in vivo
[14] = Stability in simulated physiological fluid assessed as compound remaining at pH 7.4 measured upto 120 mins by LC-MS analysis; format: physicochemical; conditions: read-out: Stability
[15] = Volume of distribution in fasted Swiss mouse at 50 mg/kg, po measured upto 48 hrs by LC-MS/MS analysis; format: ADME, organism-based; conditions: in vivo
[16] = AUC in fasted Swiss mouse at 50 mg/kg, po measured upto 48 hrs by LC-MS/MS analysis; format: ADME, organism-based; parameters: time < 48 hrs, dose 50 mg/kg, route po; conditions: in vivo
[17] = Stability in simulated intestinal fluid assessed as compound remaining at pH 6.8 measured upto 120 mins by LC-MS analysis; format: ADME; conditions: read-out: Stability
[18] = Stability in mouse plasma assessed as compound remaining at 10 uM measured upto 120 mins by LC-MS analysis; format: ADME, cell-free; conditions: read-out: Stability
Mus musculus [19] = test: Antiinflammatory activity in Swiss albino mouse assessed as inhibition of carrageenan-induced paw edema at 50 mg/kg,po pretreated for 1 hr followed by carrageenan administration measured after 4 hrs relative to control; format: functional; conditions: time 5 hrs
[20] = Cmax in fasted Swiss mouse at 50 mg/kg, po measured upto 48 hrs by LC-MS/MS analysis; format: ADME, organism-based; parameters: time < 48 hrs, dose 50 mg/kg, route po; conditions: in vivo
[21] = Clearance in fasted Swiss mouse at 50 mg/kg, po measured upto 48 hrs by LC-MS/MS analysis; format: ADME, organism-based; conditions: in vivo
[22] = Tmax in fasted Swiss mouse at 50 mg/kg, po measured upto 48 hrs by LC-MS/MS analysis; format: ADME, organism-based; conditions: in vivo
Mus musculus [23] = test: Antiinflammatory activity in Swiss albino mouse assessed as inhibition of carrageenan-induced paw edema at 50 mg/kg,po pretreated for 1 hr followed by carrageenan administration measured after 6 hrs relative to control; format: functional; conditions: time 7 hrs
Mus musculus [24] = test: Antiinflammatory activity in Swiss albino mouse assessed as inhibition of carrageenan-induced paw edema at 25 mg/kg,po pretreated for 1 hr followed by carrageenan administration measured after 6 hrs relative to control; format: functional; conditions: time 7 hrs
Mus musculus [25] = test: Antiinflammatory activity in Swiss albino mouse assessed as inhibition of carrageenan-induced paw edema at 100 mg/kg,po pretreated for 1 hr followed by carrageenan administration measured after 6 hrs relative to control; format: functional; conditions: time 7 hrs
THP-1 [26] = test: Downregulation of LPS-induced JNK1/2 phosphorylation in human THP-1 cells at 10 uM incubated for 60 mins followed by LPS treatment 90 mins by […]; format: functional, cell-based; conditions: time 150.0 min
THP-1 [27] = test: Downregulation of LPS-induced ERK1/2 phosphorylation in human THP-1 cells at 10 uM incubated for 60 mins followed by LPS treatment 90 mins by […]; format: functional, cell-based; conditions: time 150.0 min

O=C1C=C(O)CO1
IC50 (Plasmodium falciparum [1]): > 5 µM | IC50 (Plasmodium falciparum [2]): 4880 nM

Cc1c(C(=O)Nc2ccccc2)c(-c2ccc(F)cc2)c(-c2ccc(F)cc2)n1CCC1=CC(=O)OC1O (configuration not stated)
Activity (THP-1 [3]): 12.55% | fold change (FC) (HEK-293T): 9.7 | Activity (THP-1 [4]): Active | IC50 (Plasmodium falciparum [2]): > 5000 nM

CCc1ccc(-c2c(-c3ccccc3)c(C(=O)Nc3ccccc3)c(C)n2CCC2=CC(=O)OC2O)cc1 (configuration not stated)
Activity (THP-1 [3]): 89.93% | fold change (FC) (HEK-293T): 7.8 | Activity (THP-1 [4]): Active | IC50 (Plasmodium falciparum [2]): 1550 nM

Cc1c(C(=O)Nc2ccccc2)c(-c2ccccc2)c(-c2ccc(F)cc2)n1CCC1=CC(=O)OC1O (configuration not stated)
IC50 (Plasmodium falciparum [1]): 4.31 µM | Activity (Plasmodium yoelii [5]): 46.6% | Activity (THP-1 [3]): 89.15% | Activity (Plasmodium yoelii [6]): 56.4% | MST [7]: 8 days | fold change (FC) (HEK-293T): 11.4 | Activity (THP-1 [4]): Active | CC50 at 72 h [8]: > 200 µM | IC50 (Plasmodium falciparum [2]): 880 nM

Cc1c(C(=O)Nc2ccccc2)c(-c2ccccc2)c(-c2ccc(C(C)C)cc2)n1C
IC50 (Plasmodium falciparum [1]): 4.34 µM | IC50 (Plasmodium falciparum [2]): 2940 nM

Cc1c(C(=O)Nc2ccccc2)c(-c2ccccc2)c(-c2ccc(C(C)C)cc2)n1CCC1=CC(=O)OC1O (configuration not stated)
IC50 (Plasmodium falciparum [1]): 4.21 µM | remaining at 2 h [9]: 89.7% | MRT [10]: 0.98 h | inhibition in vivo at 25 mg/kg (Mus musculus [11]): 49% | Activity (Plasmodium yoelii [5]): 46.4% | inhibition in vivo at 100 mg/kg (Mus musculus [12]): 67% | half-life [13]: 75 min | Activity (THP-1 [3]): 92.51% | Activity (Plasmodium yoelii [6]): 69.4% | remaining at 2 h [14]: 89.8% | Vd [15]: 541.85 L/kg | AUC at 48 h [16]: 178 ng·h/mL | remaining at 2 h [17]: 89.9% | remaining at 2 h, 10 µM [18]: 81.8% | inhibition in vivo at 50 mg/kg (Mus musculus [19]): 60% | Cmax [20]: 369 ng/mL | MST [7]: 12.2 days | fold change (FC) (HEK-293T): 7.4 | Activity (THP-1 [4]): Active | CL/F [21]: 4870 mL/min/kg | Tmax [22]: 15 min | inhibition in vivo at 50 mg/kg (Mus musculus [23]): 58% | inhibition in vivo at 25 mg/kg (Mus musculus [24]): 43% | inhibition in vivo at 100 mg/kg (Mus musculus [25]): 62% | CC50 at 72 h [8]: 138 µM | Activity (THP-1 [26]): Active | IC50 (Plasmodium falciparum [2]): 970 nM | Activity (THP-1 [27]): Active

Cc1c(C(=O)Nc2ccccc2)c(-c2ccccc2)c(-c2ccc(Cl)cc2)n1CC1=CC(=O)OC1O (configuration not stated)
Activity (THP-1 [3]): 88.38% | fold change (FC) (HEK-293T): 12.1 | Activity (THP-1 [4]): Active | IC50 (Plasmodium falciparum [2]): 1360 nM

CCN(CC)CCCC(C)Nc1ccnc2cc(Cl)ccc12 (configuration not stated) [CHLOROQUINE]
CC50 at 72 h [8]: 187 µM

COc1ccc(-c2c(C(=O)Nc3ccccc3)c(C)n(CC3=CC(=O)OC3O)c2-c2ccc(OC)cc2)cc1 (configuration not stated)
Activity (THP-1 [3]): 19.82% | fold change (FC) (HEK-293T): 9.8 | Activity (THP-1 [4]): Active | IC50 (Plasmodium falciparum [2]): 1800 nM

Cc1c(C(=O)Nc2ccccc2)c(-c2ccc(Cl)cc2)c(-c2ccc(Cl)cc2)n1CCC1=CC(=O)OC1O (configuration not stated)
remaining at 2 h [9]: 89.5% | MRT [10]: 1.02 h | inhibition in vivo at 25 mg/kg (Mus musculus [11]): 61% | inhibition in vivo at 100 mg/kg (Mus musculus [12]): 73% | half-life [13]: 52.2 min | Activity (THP-1 [3]): 92.36% | remaining at 2 h [14]: 87.9% | Vd [15]: 754.5 L/kg | AUC at 48 h [16]: 86.9 ng·h/mL | remaining at 2 h [17]: 84.4% | remaining at 2 h, 10 µM [18]: 86.5% | inhibition in vivo at 50 mg/kg (Mus musculus [19]): 62% | Cmax [20]: 110 ng/mL | fold change (FC) (HEK-293T): 9.9 | Activity (THP-1 [4]): Active | CL/F [21]: 9810 mL/min/kg | Tmax [22]: 15 min | inhibition in vivo at 50 mg/kg (Mus musculus [23]): 56% | inhibition in vivo at 25 mg/kg (Mus musculus [24]): 56% | inhibition in vivo at 100 mg/kg (Mus musculus [25]): 65% | Activity (THP-1 [26]): Active | IC50 (Plasmodium falciparum [2]): 1470 nM | Activity (THP-1 [27]): Active

Cc1c(C(=O)Nc2ccccc2)c(-c2ccccc2)c(-c2ccccc2)n1CC1=CC(=O)OC1O (configuration not stated)
Activity (THP-1 [3]): 78.73% | fold change (FC) (HEK-293T): 10.6 | Activity (THP-1 [4]): Active | IC50 (Plasmodium falciparum [2]): 1420 nM

COc1ccc(-c2c(-c3ccccc3)c(C(=O)Nc3ccccc3)c(C)n2CC2=CC(=O)OC2O)cc1 (configuration not stated)
Activity (THP-1 [3]): 79.88% | fold change (FC) (HEK-293T): 10.4 | Activity (THP-1 [4]): Active | IC50 (Plasmodium falciparum [2]): 3390 nM

COc1ccc(-c2c(C(=O)Nc3ccccc3)c(C)n(CCC3=CC(=O)OC3O)c2-c2ccc(OC)cc2)cc1 (configuration not stated)
Activity (THP-1 [3]): 85.2% | fold change (FC) (HEK-293T): 8.6 | Activity (THP-1 [4]): Active | IC50 (Plasmodium falciparum [2]): 1490 nM

Cc1ccc(-c2c(-c3ccccc3)c(C(=O)Nc3ccccc3)c(C)n2CCC2=CC(=O)OC2O)cc1 (configuration not stated)
IC50 (Plasmodium falciparum [1]): 3.92 µM | Activity (Plasmodium yoelii [5]): 80.68% | Activity (THP-1 [3]): 46.46% | Activity (Plasmodium yoelii [6]): 34.6% | MST [7]: 14.6 days | fold change (FC) (HEK-293T): 13.1 | Activity (THP-1 [4]): Active | CC50 at 72 h [8]: > 200 µM | IC50 (Plasmodium falciparum [2]): 600 nM

From ChEMBL document CHEMBL5360578, “Design, synthesis and evaluation of novel pyrrole-hydroxybutenolide hybrids as promising antiplasmodial and anti-inflammatory agents” (Eur J Med Chem, 2023)
